Assay results taken from US20230067942A1, “IMPROVEMENT IN PULMONARY ARTERIAL […] INHALED NITRIC OXIDE (iNO) TREATMENT” (BELLEROPHON THERAPEUTICS, priority 2020, published 2023).
“Also recorded” adds a separate entry of the source.

Test system: patients with PH associated with PF (PH-PF)
Assay: Acute escalating doses of pulsed iNO; hemodynamics by right heart catheterization (RHC) in PH-PF patients
Assay type: in vivo, human
Conditions: for Pulmonary arterial compliance (PAC), change from baseline: nine PH-PF patients on oxygen, median change
Protocol: FIG. 1 depicts the study design for acute iNO dose escalation. Nine PH-PF subjects were administered escalating doses of pulsed iNO (iNO30 to iNO75 mcg/kg IBW/hrs) with continuous oxygen.
FIG. 2, comprising FIGS. 2A-2C, are graphs depicting pulmonary arterial compliance, or PAC (FIG. 2A), pulmonary vascular resistance, or PVR (FIG. 2B), and mean pulmonary arterial pressure, or mPAP (FIG. 2C) for inhaled nitric oxide at 30 mcg/kg IBW/hr (iNO30), 45 mcg/kg IBW/hr (iNO45), and 75 mcg/kg IBW/hr (iNO75). The data is based on nine pulmonary hypertension—interstitial lung disease (ILD) patients. Bar graphs represent median change from baseline at each assessment for all available subjects. […] Statistical analysis was based on the Wilcoxon Rank Test.
This study was performed to determine whether increasing doses of pulsed iNO can improve PAC in patients with PH-PF on long-term oxygen therapy with intermediate or high probability of pulmonary hypertension (PH) as determined by echocardiography. Nine patients were acutely challenged with escalating doses of iNO (iNO30, iNO45, and iNO75) over a 90 minute period. Each dose was administered for 10 minutes, with 10 minute “washout” periods between doses. Baseline measurements were taken from timepoint 0-30 minutes. iNO30 was dosed at 30 mcg/kg IBW/hrs from timepoint 30-40 minutes, iNO45 at 45 mcg/kg IBW/hrs from timepoint 50-60 minutes, and iNO75 was dosed at 75 mcg/kg IBW/hrs from timepoint 70-80 minutes (see FIG. 1). The demographics of the patient population is described in Table 1, and Baseline Hemodynamics in Table 2, below.
PAC was derived by stroke volume divided by (SPAP-DPAP) collected during right heart catheterization (RHC). Patients were on sufficient supplemental oxygen at baseline to maintain an SpO2 of at least 92% at rest. Upon completion of the RHC, subjects were offered the opportunity to continue on to chronic iNO therapy in an extension study. 6 minute walk distance (6MWD) was assessed prior to RHC treatment in the extension study.

[1] = all subjects, doses not separated
[2] = iNO30 (30 mcg/kg IBW/hr, pulsed, 10 min), nine PH-PF patients, Wilcoxon Rank Test
[3] = iNO45 (45 mcg/kg IBW/hr, pulsed, 10 min), nine PH-PF patients, Wilcoxon Rank Test
[4] = iNO75 (75 mcg/kg IBW/hr, pulsed, 10 min), nine PH-PF patients, Wilcoxon Rank Test

For `[N]=O` [iNO, nitric oxide], the “PAC on pulsed iNO versus average baseline” value [1] was “increase”, the “PVR on pulsed iNO versus average baseline” value [1] was “reduction; also recorded: statistically and clinically significant improvements” and the “mPAP on pulsed iNO versus average baseline” value [1] was “statistically and clinically significant improvements; also recorded: reduction”. For the same molecule, the “PAC on pulsed iNO versus average baseline” value (all subjects, doses not separated, listed as Inhaled NO) was “improves PAC”, the “Pulmonary arterial compliance (PAC), change from baseline” value (iNO30 (30 mcg/kg IBW/hr, pulsed, 10 min), Wilcoxon Rank Test) was “improved with significance” and the “Mean pulmonary arterial pressure (mPAP), change from baseline” value [2] was “statistically significant improvement; also recorded: improved with significance”. For the same molecule, the “Pulmonary vascular resistance (PVR), change from baseline” value [2] was “statistically significant improvement; also recorded: improved with significance”, the “Pulmonary arterial compliance (PAC), change from baseline” value (iNO45 (45 mcg/kg IBW/hr, pulsed, 10 min), Wilcoxon Rank Test) was “improved with significance” and the “Mean pulmonary arterial pressure (mPAP), change from baseline” value [3] was “statistically significant improvement; also recorded: improved with significance”. The “Pulmonary vascular resistance (PVR), change from baseline” value [3] was “statistically significant improvement; also recorded: improved with significance”, the “Pulmonary vascular resistance (PVR), further change between iNO30 and iNO45 doses” value (iNO45 versus iNO30, nine PH-PF patients, Wilcoxon Rank Test) was “additional statistically significant improvement; also recorded: further improved with significance” and the “Pulmonary arterial compliance (PAC), change from baseline” value (iNO75 (75 mcg/kg IBW/hr, pulsed, 10 min), Wilcoxon Rank Test) was “improvement in PAC”. The “Mean pulmonary arterial pressure (mPAP), change from baseline” value [4] was “statistically significant improvement; also recorded: improved with significance” and the “Pulmonary vascular resistance (PVR), change from baseline” value [4] was “statistically significant improvement; also recorded: improved with significance”.
